According to paper PMC7255801, “Disease-associated mutations in the human TRPM3 render the channel overactive via two distinct mechanisms” (eLife, 2020):

Molecular target: T1, hTRPM3_1325 V990M (Homo sapiens, UniProt Q9HCF6, V1015M)
T1 construct: expressed in transfected cells; host or cells: Xenopus laevis oocytes (cRNA injection)
T1 sequence (Q9HCF6 1-1325 isoform Q9HCF6-10 V990M): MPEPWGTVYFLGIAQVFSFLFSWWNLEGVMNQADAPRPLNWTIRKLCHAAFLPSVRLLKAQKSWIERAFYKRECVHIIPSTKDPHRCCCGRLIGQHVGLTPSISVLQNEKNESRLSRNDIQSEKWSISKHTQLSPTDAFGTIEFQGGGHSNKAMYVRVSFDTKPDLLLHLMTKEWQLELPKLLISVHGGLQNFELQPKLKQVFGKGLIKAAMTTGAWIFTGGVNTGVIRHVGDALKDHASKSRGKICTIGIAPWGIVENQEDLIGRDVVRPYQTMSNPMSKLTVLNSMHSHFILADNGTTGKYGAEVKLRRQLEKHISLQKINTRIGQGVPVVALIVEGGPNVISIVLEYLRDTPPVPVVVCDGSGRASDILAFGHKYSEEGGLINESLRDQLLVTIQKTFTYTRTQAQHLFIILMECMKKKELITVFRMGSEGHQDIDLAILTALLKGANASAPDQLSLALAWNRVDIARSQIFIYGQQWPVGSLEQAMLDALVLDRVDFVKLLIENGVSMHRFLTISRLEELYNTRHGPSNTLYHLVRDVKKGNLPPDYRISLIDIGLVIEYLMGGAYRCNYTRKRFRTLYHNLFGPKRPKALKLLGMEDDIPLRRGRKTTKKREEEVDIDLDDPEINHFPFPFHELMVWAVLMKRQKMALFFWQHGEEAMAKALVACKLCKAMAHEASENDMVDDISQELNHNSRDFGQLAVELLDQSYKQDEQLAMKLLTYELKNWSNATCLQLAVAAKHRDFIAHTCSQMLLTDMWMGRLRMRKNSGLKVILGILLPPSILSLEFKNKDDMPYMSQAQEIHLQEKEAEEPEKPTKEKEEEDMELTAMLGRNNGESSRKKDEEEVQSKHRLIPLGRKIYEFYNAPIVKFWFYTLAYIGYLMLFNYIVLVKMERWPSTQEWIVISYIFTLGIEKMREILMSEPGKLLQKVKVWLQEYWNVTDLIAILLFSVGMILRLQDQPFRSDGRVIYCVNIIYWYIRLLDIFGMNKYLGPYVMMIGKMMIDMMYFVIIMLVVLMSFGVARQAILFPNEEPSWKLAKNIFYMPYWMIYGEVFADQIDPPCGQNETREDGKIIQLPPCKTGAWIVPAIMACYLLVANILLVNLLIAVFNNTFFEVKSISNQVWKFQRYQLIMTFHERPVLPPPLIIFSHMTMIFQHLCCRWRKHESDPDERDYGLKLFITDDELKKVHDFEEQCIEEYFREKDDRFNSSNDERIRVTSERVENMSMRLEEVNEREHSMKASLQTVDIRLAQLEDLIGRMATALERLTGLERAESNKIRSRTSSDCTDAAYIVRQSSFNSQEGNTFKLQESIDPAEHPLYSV
Experiment: Two electrode voltage clamp in Xenopus oocytes, V990M mutant
Assay type: cell-based
Details: V990M compared with P1090Q, 50 μM, 100 and −100 mV, room temperature (20–22°C)
Protocol: Xenopus laevis oocytes were prepared as described earlier ([Badheka et al., 2015]). All animal procedures were approved by the Institutional Animal Care and Use Committee at Rutgers New Jersey Medical School. In brief, frogs were anesthetized in 0.25% ethyl 3-aminobenzoate methanesulfonate solution (MS222; Sigma-Aldrich); bags of ovaries were removed surgically from the anesthetized frogs. Individual oocytes were obtained by overnight digestion at 16°C in 0.2–0.3 mg/ml type 1A collagenase (Sigma-Aldrich), dissolved in a solution containing 82.5 mM NaCl, 2 mM KCl, 1 mM MgCl2, and […] HEPES, pH 7.4 (OR2 solution). The next day the collagenase containing solution was discarded and the oocytes were washed multiple times with OR2 solution. […]
Two electrode voltage clamp experiments were performed as described ([Badheka et al., 2015]). In brief, oocytes were placed in extracellular solution (97 mM NaCl, 2 mM KCl, 1 mM MgCl2, and […] HEPES, pH 7.4), and currents were recorded with thin-wall inner filament– containing glass pipettes (World Precision Instruments) filled with 3 M KCl in 1% agarose. Currents were measured with a ramp protocol from −100 to 100 mV once every 0.5 s with a GeneClamp 500B amplifier and analyzed with the pClamp 9.0 software (Molecular Devices). […]

- Inhibition of basal current: significantly larger inhibition
SMILES: CCC1(c2ccccc2)C(=O)NCNC1=O [primidone]
